# Experimental data published in EP0079167A1, “A carbapenem compound, preparation and use” (BEECHAM GROUP PLC, priority 1981, dated 1983).
# Where two headings read alike, the source gives them in different places.
# Assays:
# Escherichia coli = test: Antibacterial activity in vitro (MIC); format: cell-based
# Klebsiella aerogenes = test: Antibacterial activity in vitro (MIC); format: cell-based
# Staphylococcus aureus = test: Antibacterial activity in vitro (MIC); format: cell-based
# [1] = Tissue stability in mouse kidney homogenate (HPLC); format: in vitro ADME; settings: 37°C, stability relative to MM13902 taken as standard (1.0), values >1.0 = fold increase in stability
# Experimental: (§1) A preparation of 2% mouse kidney homogenate was mixed with equal volumes of a 200 µg/ml solution of the antibiotic to be tested. The stability of the antibiotic at 37 °C was studied by removal of aliquots and subjecting them to a high pressure liquid chromatographic analysis. The values are given in figures relative to that obtained for MM13902 of U.K. Patent No. 1489235. The values are given in figures relative to that obtained for MM13902 which is taken as standard (1.0). Values greater than 1.0 reflect the fold increase in stability relative to MM13902.
# [2] = Tissue stability in human kidney (HPLC); format: in vitro ADME; settings: stability relative to MM13902 taken as standard (1.0), values >1.0 = fold increase in stability
# Experimental: as §1
# E. coli E96R+ = test: Antibacterial activity in vivo against experimental mouse infection; settings: Escherichia coli, read-out: CD50
# Experimental: (§2) CD50 mg/kg (total dose) - Compounds dosed at 1 and 5 hours past infection.
# Staph. aureus Smith = test: as above; settings: Staphylococcus aureus; mouse infection with Staph. aureus Smith; total dose; dosed at 1 and 5 hours past infection; read-out: CD50 (the source's name)
# Experimental: as §2
# [3] = Escherichia coli Ba78R+, read-out: MIC
# [4] = Escherichia coli JT4R+, read-out: MIC
# [5] = Klebsiella aerogenes VA2R+ (printed Va2R+ for Compound B)
structure (smiles),measurement,setting,value
C[C@H](O)[C@@H]1C(=O)N2C(C(=O)O)=C(S/C=C\C(=O)OCCN)C[C@H]12 [Compound A],MIC,Escherichia coli,0.8 µg/mL
same,MIC,Escherichia coli; [3],1.6 µg/mL
same,MIC,Escherichia coli; [4],6.2 µg/mL
same,MIC,"Escherichia coli; Escherichia coli JT20R+, read-out: MIC",6.2 µg/mL
same,MIC,Klebsiella aerogenes; Klebsiella aerogenes 185R+,3.1 µg/mL
same,MIC,Klebsiella aerogenes; Klebsiella aerogenes 192R+,6.2 µg/mL
same,MIC,Klebsiella aerogenes; Klebsiella aerogenes Ba95R+,6.2 µg/mL
same,MIC,Klebsiella aerogenes; [5],25 µg/mL
same,MIC,"Staphylococcus aureus; ATCC25923, Staphylococcus aureus ATCC 25923",0.1 µg/mL
same,MIC,Staphylococcus aureus; Staphylococcus aureus 68/8484,0.2 µg/mL
same,MIC,Staphylococcus aureus; Staphylococcus aureus 150+,0.2 µg/mL
same,MIC,Staphylococcus aureus; Staphylococcus aureus MB9+,0.2 µg/mL
same,MIC,Staphylococcus aureus; Staphylococcus aureus N36MR,0.4 µg/mL
same,MIC,Staphylococcus aureus; Staphylococcus aureus N71MR,0.8 µg/mL
same,MIC,Staphylococcus aureus; Staphylococcus aureus Smith,0.2 µg/mL
same,MIC,Staphylococcus aureus; Staphylococcus aureus T71+,0.1 µg/mL
same,MIC,Staphylococcus aureus; Staphylococcus aureus T100,0.2 µg/mL
same,Tissue Stability Values,[1],1.3
same,Tissue Stability Values,[2],1.2
same,ED50,E. coli E96R+,66 mg/kg
same,ED50,Staph. aureus Smith,4.5 mg/kg
"C[C@@H](O)[C@H]1C(=O)N2C(C(=O)O)=C(S/C=C\C(=O)OCCN)C[C@H]12 [Compound B, (5R.6S)-3-[(Z)-2-(2-aminoethyloxycarbonyl)ethenylthio]-6-[(R)-1-hydroxyethyl]-7-oxo-1-azabicyclo[3.2.0]hept-2-ene-2-carboxylic acid]",MIC,Escherichia coli; [3],0.1 µg/mL
same,MIC,Escherichia coli; [4],0.1 µg/mL
same,MIC,"Escherichia coli; Escherichia coli JT56R+, read-out: MIC",0.2 µg/mL
same,MIC,"Escherichia coli; Escherichia coli JT177R, read-out: MIC",0.2 µg/mL
same,MIC,Klebsiella aerogenes; Klebsiella aerogenes Ba95R+,0.4 µg/mL
same,MIC,Klebsiella aerogenes; Klebsiella aerogenes Du185R,0.2 µg/mL
same,MIC,Klebsiella aerogenes; Klebsiella aerogenes Du192R,0.2 µg/mL
same,MIC,Klebsiella aerogenes; [5],0.4 µg/mL
same,MIC,Staphylococcus aureus; Staphylococcus aureus MANSTK 33269,0.4 µg/mL
same,MIC,Staphylococcus aureus; Staphylococcus aureus T2p-,0.1 µg/mL
same,MIC,Staphylococcus aureus; Staphylococcus aureus T97p+,0.1 µg/mL
same,MIC,Staphylococcus aureus; Staphylococcus aureus T100p-,0.02 µg/mL
same,MIC,Staphylococcus aureus; Staphylococcus aureus T118p+,0.05 µg/mL
same,MIC,Staphylococcus aureus; Staphylococcus aureus T120p-,0.02 µg/mL
same,Tissue Stability Values,[1],2.4
same,Tissue Stability Values,[2],2.2
same,ED50,E. coli E96R+,13 mg/kg
same,ED50,Staph. aureus Smith,< 0.4 mg/kg
CC(=O)N/C=C/SC1=C(C(=O)O)N2C(=O)[C@@H]([C@H](C)OS(=O)(=O)O)[C@H]2C1 [MM13902],Tissue Stability Values,[1],1.0
same,Tissue Stability Values,[2],1.0
C[C@H](O)[C@H]1C(=O)N2C(C(=O)O)=C(S/C=C\C(=O)OCCN)C[C@H]12 [Compound C],MIC,"Escherichia coli; Escherichia coli JT39, read-out: MIC",3.1 µg/mL
same,MIC,Klebsiella aerogenes; Klebsiella aerogenes A,3.1 µg/mL
same,MIC,Staphylococcus aureus; Staphylococcus aureus 1517,6.2 µg/mL
same,MIC,Staphylococcus aureus; Staphylococcus aureus Russell,0.4 µg/mL
